Measured values published in patent publication US20250171516A1, “PEPTIDE ACIDS AS A GLP1R AGONIST AND ANTIBODY-DRUG CONJUGATES THEREOF” (Regeneron Pharmaceuticals, Inc., priority 2023, published 2025).
“And” between values parts separate entries of the source, which are not always exact repeats. Identical values can stand only once. Non-standard residues stand in square brackets, D forms with d. Groups on a side chain read outwards from the residue. No end group written: not given here. M3190 payload = not defined here; AA10 = not defined here; AA1 = not defined here; AA2 = not defined here; AA6 = not defined here; AA9 = not defined here

Legend:
GLP-1R [1] = target: T1, GLP-1R (Homo sapiens, UniProt P43220); assay: GLP-1R cAMP assay of peptides (Tables 10, 14, 15); format: cell-based
[2] = Metabolite study in human liver S9 (high resolution LC-MS); format: in vitro ADME
Experimental: Metabolite studies were conducted using Q-M3190 and Q-6009 (Q is Glutamine).
Liver S9 is the supernatant obtained by grinding and centrifuging the liver cells. The enzymes content is lower compared to Hepatocytes. It mainly contains CYP enzymes and some biphasic enzymes (but no biphasic coenzyme), so additional coenzyme (NADPH and UDPGA, etc.) is needed to mediate the biphasic reaction.

[3] = pH stability (special liability); format: physicochemical
GLP-1R [4] = target: T1, GLP-1R; assay: CRE-Luc cAMP responsive luciferase reporter assay in HEK293/CRE-Luc/hGLP1R cells; format: cell-based; set-up: engineered to express full-length human GLP1R (GenBank: AAI12127.1) (HEK293/CRE-Luc/hGLP1R); expressed in transfected cells; host or cells: HEK293/CRE-Luc (HEK293/FSC11/pCDNA3.1 + GLP1R, ACL6822); details: for Emax: HEK293, read-out: Emax (% GLP-1), CRE-dependent reporter activity, HEK293/CRE-Luc/hGLP1R
Source text: To test the activity of GLP1R agonist linker-payloads (LPs) and anti-GLP1R antibody-tethered ligands (ATLs) of the invention, a cell-based cAMP responsive luciferase reporter assay was developed. To generate the assay cell line, the firefly luciferase gene was placed under the control of four copies of a cAMP response element (4×CRE) located upstream of a minimal promoter and transfected into HEK293 cells and referred to herein as HEK293/CRE-Luc cells. HEK293/CRE-Luc cells were then engineered to express full-length human GLP1R (GenBank: AAI12127.1) (HEK293/CRE-Luc/hGLP1R).
(§1) For all assays, cells were seeded into 384-well plates (Falcon #353988) at 6,000 cells/well in assay media (Opti-MEM, 1% FBS, 1×Penicillin-Streptomycin) and incubated overnight at 37° C. Serial dilutions of the anti-GLP1R ATLs and non-binding control ATLs were performed in assay media. Serial dilutions of linker-payloads (LPs) were performed in 100% DMSO (ATCC, #4-X-5), followed by 1:100 dilution in assay media. Test articles were added to cells (1:5 dilution) using VIAFLO 384 (Integra) with the last well in each serial dilution series serving as a blank control containing only assay media for ATLs or assay media with 0.2% DMSO for LPs. The blank was plotted as a continuation of the serial dilution.
For the CRE-Luc assay, after a 5-hours incubation at 37° C., luciferase activity was determined by addition of ONE-Glo reagent (Promega, #E6130) followed by measurement of relative light units (RLUs) on EnVision Plate Reader (Perkin Elmer).
(§2) EC50 values for luminescence assays were determined using a four-parameter logistic equation over a 12-point dose response curve (GraphPad Prism).

GLP-1R [5] = target: T1, GLP-1R; assay: b-arrestin 2 recruitment enzyme fragment complementation assay in HEK293/b-arrestin2/hGLP1R cells; format: cell-based; set-up: The full-length human GLP1R (NP_002053.3) with a C-terminus fusion to a small b-gal fragment called enzyme donor or ProLink (PK); host or cells: HEK293/b-arrestin2-EA (HEK293/Barrestin clone 2C6/hGLP1R-Prolink1 high sorted, ACL21687)
Source text: To test the recruitment of b-arrestin 1 and b-arrestin 2 to GLP1R upon receptor activation, two enzyme fragment complementation assays were developed. To generate the assay cell lines, b-arrestin 1 fused to the b-galactosidase (b-gal) reporter fragment called enzyme acceptor (EA) (i.e., b-arrestin1-EA) or b-arrestin 2 fused to the b-gal reporter fragment EA (i.e., b-arrestin2-EA) were transduced into HEK293 cells using PathHunter b-Arrestinl Retroparticles (DiscoverX, #83-OT-TB-N-01) or PathHunter b-Arrestin2 Retroparticles (DiscoverX, #93-1087), respectively. The full-length human GLP1R (NP_002053.3) with a C-terminus fusion to a small b-gal fragment called enzyme donor or ProLink (PK) (i.e., hGLP1R-PK) was then engineered into HEK293/b-arrestinl-EA cells and HEK293/b-arrestin2-EA cells to generate the cell lines referred herein as HEK293/b-arrestin1/hGLP1R and HEK293/b-arrestin2/hGLP1R. Recruitment of b-arrestin 1 or b-arrestin 2 to GLP1R in these reporter cell lines brings both b-gal fragments (EA and PK) into close proximity, leading to reconstitution of a fully functional enzyme capable of hydrolyzing a substrate and generating a chemiluminescent signal.
as §1
For b-arrestin 1 and b-arrestin 2 recruitment assays, after a 1-hour incubation at 37° C., PathHunter Detection Reagent (Eurofins DiscoverX, #93-0001) was added to the wells followed by a 1-hour incubation at room temperature. RLUs were measured on EnVision Plate Reader (Perkin Elmer).
as §2

GLP1R humanized mouse = assay: In vivo conversion of c-M3190 ATL to c-M6009 after s.c. dosing; details: 7 days
Experimental: From a tryptic digestion of the parent M3190-ATL, peptide c-M3190 is a peptide and their structures/sequences were determined by high resolution mass spectroscopy as shown below.
11.4 Syntheses and Characterization of Peptide Compounds Identified from M3190 Metabolite Study

[6] = target: T2, GLP-1R of the cAMP assay of Tables 10, 14 and 15 (human, UniProt P43220 24-463, limits assumed); assay: cell-based or functional assay
[7] = target: full-length human GLP1R (GenBank: AAI12127.1) expressed on HEK293/CRE-Luc/hGLP1R cells (human, UniProt P43220 24-463); assay: cell-based or functional assay
[8] = target: hGLP1R-PK: full-length human GLP1R (NP_002053.3) with a C-terminus fusion to ProLink (PK), on … (human, UniProt P43220 24-463); assay: cell-based or functional assay
[9] = target: T2, GLP-1R of the cAMP assay of Tables 10, …; assay: cell-based or functional assay; remark: listed apart in the source

T1 sequence (P43220 24-463): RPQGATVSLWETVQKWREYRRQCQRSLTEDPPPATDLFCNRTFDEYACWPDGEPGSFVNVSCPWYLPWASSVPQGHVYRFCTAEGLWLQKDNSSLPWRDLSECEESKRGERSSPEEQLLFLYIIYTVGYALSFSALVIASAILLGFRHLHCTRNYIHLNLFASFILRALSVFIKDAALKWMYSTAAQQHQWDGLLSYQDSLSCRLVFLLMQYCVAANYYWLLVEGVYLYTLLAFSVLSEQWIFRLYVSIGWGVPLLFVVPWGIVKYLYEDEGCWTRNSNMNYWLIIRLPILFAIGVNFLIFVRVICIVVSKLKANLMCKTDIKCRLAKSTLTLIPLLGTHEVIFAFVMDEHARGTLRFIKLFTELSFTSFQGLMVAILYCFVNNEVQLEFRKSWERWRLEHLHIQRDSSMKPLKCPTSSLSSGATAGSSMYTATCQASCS

## CCc1cc(OCCCCn2cc(COCCOCCOCCOCCOCCOCCOCCOCCN)nn2)ccc1-c1ccc(C[C@H](NC(=O)[C@H](CC(=O)O)NC(=O)[C@H](CO)NC(=O)[C@@H](NC(=O)C(C)(Cc2ccccc2F)NC(=O)[C@@H](NC(=O)CNC(=O)[C@H](Cc2nn[nH]n2)NC(=O)C(C)(C)C(=O)NCCc2cnc[nH]2)[C@@H](C)O)[C@@H](C)O)C(=O)N[C@@H](CCCc2cc(C)cc(C)c2)C(=O)O)cc1 (stereo partly shown) [M6009]
GLP-1R [1]; Table 10
  GLP-1R CAMP Max: 139.7%
GLP-1R [1]; Table 10, read-out: GLP-1R CAMP EC50
  EC50: 2.23 nM
[2]; Q-M6009 in human liver S9, text
  amount remaining / detected after incubation of Q-M6009: 93%
[2]; metabolites of Q-M3190 at 4 hours in human liver S9
  Relative Abundance (% Total): 2.34 % Total
[2]; metabolites of Q-M6009 at 4 hours in human liver S9
  Relative Abundance (% Total): 13.14 % Total
[3]
  Special liability: stable at pH <3 or pH >11, and unstable at PH <1
physchem
  solubility: > 70000 µg/mL and > 30000 µM
GLP-1R [4]
  Emax: 92.1%
GLP-1R [4]; HEK293/CRE-Luc/hGLP1R cells
  CRE-dependent luciferase reporter activity (in words): comparable activities as that of M3190
GLP-1R [5]; HEK293/b-arrestin2/hGLP1R cells
  b-arrestin 2 recruitment (in words): comparable activities as that of M3190

## CCc1cc(OCCCCn2cc(COCCOCCOCCOCCOCCOCCOCCOCCN)nn2)ccc1-c1ccc(C[C@H](NC(=O)[C@H](CC(=O)O)NC(=O)[C@H](CO)NC(=O)[C@@H](NC(=O)C(C)(Cc2ccccc2F)NC(=O)[C@@H](NC(=O)CNC(=O)[C@H](Cc2nnn[nH]2)NC(=O)C(C)(C)C(=O)NCCc2cnc[nH]2)[C@@H](C)O)[C@@H](C)O)C(=O)O)cc1 (stereo partly shown) [M6324]
GLP-1R [1]
  EC50: 882 nM
GLP-1R [1]; Table 10
  GLP-1R CAMP Max: 53.33%
Solubility in water
  solubility: > 70000 µg/mL and > 30000 µM
GLP-1R [4]
  Emax: 91.6%
GLP-1R [5]
  EC50: > 1000 nM
GLP-1R [5]; HEK293, read-out: Emax (% GLP-1), b-Arrestin2 recruitment, HEK293/b-arrestin2/hGLP1R
  Emax: 0.7%
GLP-1R [5]; read-out: b-arrestin 2 recruitment Emax relative to GLP-1, HEK293/b-arrestin2/hGLP1R cells
  Emax: 0.7%

## c-M3190 ATL: "Peptide C-M3190 identified from metabolite studies of M3190-antibody conjugate"; "From a tryptic digestion of the parent M3190-ATL" (LLQ(M3190 payload)GSGDIQMTQSPSSVSASVGDR; reading uncertain)
GLP1R humanized mouse
  conversion of c-M3190 ATL to c-M6009: slowly converted to c-M6009 after 7 days

B1: M6324 (AA10-AA9-AA8-AA7-AA6-AA5-AA4-AA3-(L)AA2-OH) (peptide)
peptide: [AA10][AA9]GT[AA6]TSD[AA2](Leu)-OH
modifications: reading uncertain; also: printed as M6324 (AA10-AA9-AA8-AA7-AA6-AA5-AA4-AA3-(L)AA2-OH)
[6]
  GLP-1R CAMP EC50: 882 nM
  GLP-1R CAMP Max (%): 53.3%
[7]
  EC50 (M), CRE-dependent reporter activity, HEK293/CRE-Luc/hGLP1R: 2.93e-07 M
  Emax (% GLP-1), CRE-dependent reporter activity, HEK293/CRE-Luc/hGLP1R: 91.6 % GLP-1
[8]
  EC50 (M), b-Arrestin2 recruitment, HEK293/b-arrestin2/hGLP1R: > 1e-06 M
  Emax (% GLP-1), b-Arrestin2 recruitment, HEK293/b-arrestin2/hGLP1R: 0.7 % GLP-1

B2: Q-M3190 (AA10-AA9-AA8-AA7-AA6-AA5-AA4-AA3-(Q-L)AA2-AA1-NH2) (peptide)
peptide: [AA10][AA9]GT[AA6]TSD[AA2]([Leu-Gln])[AA1]-NH2
modifications: reading uncertain; also: printed as Q-M3190 (AA10-AA9-AA8-AA7-AA6-AA5-AA4-AA3-(Q-L)AA2-AA1-NH2)
[9]
  cAMP EC50 (nm): 1.07 nm
